Reference: US8754068B2, “Modified C-3 betulinic acid derivatives as HIV maturation inhibitors” (priority 2010, dated 2014)

Tested on: recombinant NL4-3 virus (Renilla luciferase in nef, Gag P373S)
Test: HIV cell culture assay (luciferase reporter virus in MT-2 cells)
Assay type: cell-based
Details: NL43
Method: HIV cell culture assay—MT-2 cells and 293T cells were obtained from the NIH AIDS Research and Reference Reagent Program. MT-2 cells were propagated in RPMI 1640 media supplemented with 10% heat inactivated fetal bovine serum, […]. The 293T cells were propagated in DMEM media supplemented with 10% heat inactivated fetal bovine serum (FBS), 100 units/ml penicillin G and 100 μg/ml streptomycin. The proviral DNA clone of NL4-3 was obtained from the NIH AIDS Research and Reference Reagent Program. A recombinant NL4-3 virus, in which a section of the nef gene from NL4-3 was replaced with the Renilla luciferase gene, was used as a reference virus. In addition, residue Gag P373 was converted to P373S. Briefly, the recombinant virus was prepared by transfection of the altered proviral clone of NL4-3. Transfections were performed in 293T cells using LipofectAMINE PLUS from Invitrogen (Carlsbad, Calif.), according to manufacturer's instruction. The virus was titered in MT-2 cells using luciferase enzyme activity as a marker. Luciferase was quantitated using the Dual Luciferase kit from Promega (Madison, Wis.), with modifications to the manufacturer's protocol. The diluted Passive Lysis solution was pre-mixed with the re-suspended Luciferase Assay Reagent and the re-suspended Stop & Glo Substrate (2:1:1 ratio). Fifty (50) μL of the mixture was added to each aspirated well on assay plates and luciferase activity was measured immediately on a Wallac TriLux (Perkin-Elmer). Antiviral activities of inhibitors toward the recombinant virus were quantified by measuring luciferase activity in cells infected for 4-5 days with NLRluc recombinants in the presence serial dilutions of the inhibitor. Table 1 is the key for the data in Table 2.

SMILES	EC50 [nM]
C=C(C)[C@@H]1CC[C@]2(CO)CC[C@]3(C)[C@H](CC[C@@H]4[C@@]5(C)CC=C(c6ccc(-c7nn[nH]n7)cc6)C(C)(C)[C@@H]5CC[C@]43C)[C@@H]12 [Example 5l, ((1R,3aS,5aR,5bR,7aR,11aS,11bR,13aR,13bR)-9-(4-(2H-tetrazol-5-yl)phenyl)-5a,5b,8,8,11a-pentamethyl-1-(prop-1-en-2-yl)-2,3,3a,4,5,5a,5b,6,7,7a,8,11,11a,11b,12,13,13a,13b-octadecahydro-1H-cyclopenta[a]chrysen-3a-yl)methanol]	> 1000
C=C(C)[C@@H]1CC[C@]2(CO)CC[C@]3(C)[C@H](CC[C@@H]4[C@@]5(C)CC=C(c6ccc(C(=O)O)c(F)c6)C(C)(C)[C@@H]5CC[C@]43C)[C@@H]12 [Example 5m, 2-fluoro-4-((1R,3aS,5aR,5bR,7aR,11aS,11bR,13aR,13bR)-3a-(hydroxymethyl)-5a,5b,8,8,11a-pentamethyl-1-(prop-1-en-2-yl)-2,3,3a,4,5,5a,5b,6,7,7a,8,11,11a,11b,12,13,13a,13b-octadecahydro-1H-cyclopenta[a]chrysen-9-yl)benzoic acid]	< 1000
C=C(C)[C@@H]1CC[C@]2(CO)CC[C@]3(C)[C@H](CC[C@@H]4[C@@]5(C)CC=C(c6ccc(C(=O)O)cc6Cl)C(C)(C)[C@@H]5CC[C@]43C)[C@@H]12 [Example 5n, 3-chloro-4-((1R,3aS,5aR,5bR,7aR,11aS,11bR,13aR,13bR)-3a-(hydroxymethyl)-5a,5b,8,8,11a-pentamethyl-1-(prop-1-en-2-yl)-2,3,3a,4,5,5a,5b,6,7,7a,8,11,11a,11b,12,13,13a,13b-octadecahydro-1H-cyclopenta[a]chrysen-9-yl)benzoic acid]	< 1000
C=C(C)[C@@H]1CC[C@]2(CO)CC[C@]3(C)[C@H](CC[C@@H]4[C@@]5(C)CC=C(c6ccc(C(=O)O)c(OC)c6)C(C)(C)[C@@H]5CC[C@]43C)[C@@H]12 [Example 5o, 4-((1R,3aS,5aR,5bR,7aR,11aS,11bR,13aR,13bR)-3a-(hydroxymethyl)-5a,5b,8,8,11a-pentamethyl-1-(prop-1-en-2-yl)-2,3,3a,4,5,5a,5b,6,7,7a,8,11,11a,11b,12,13,13a,13b-octadecahydro-1H-cyclopenta[a]chrysen-9-yl)-2-methoxybenzoic acid]	500
C=C(C)[C@@H]1CC[C@]2(CO)CC[C@]3(C)[C@H](CC[C@@H]4[C@@]5(C)CC=C(c6ccc(C(=O)O)c(O)c6)C(C)(C)[C@@H]5CC[C@]43C)[C@@H]12 [Example 5p, 2-hydroxy-4-((1R,3aS,5aR,5bR,7aR,11aS,11bR,13aR,13bR)-3a-(hydroxymethyl)-5a,5b,8,8,11a-pentamethyl-1-(prop-1-en-2-yl)-2,3,3a,4,5,5a,5b,6,7,7a,8,11,11a,11b,12,13,13a,13b-octadecahydro-1H-cyclopenta[a]chrysen-9-yl)benzoic acid]	< 1000
C=C(C)[C@@H]1CC[C@]2(CO)CC[C@]3(C)[C@H](CC[C@@H]4[C@@]5(C)CC=C(c6cnc(C(=O)O)nc6)C(C)(C)[C@@H]5CC[C@]43C)[C@@H]12 [Example 5q, 5-((1R,3aS,5aR,5bR,7aR,11aS,11bR,13aR,13bR)-3a-(hydroxymethyl)-5a,5b,8,8,11a-pentamethyl-1-(prop-1-en-2-yl)-2,3,3a,4,5,5a,5b,6,7,7a,8,11,11a,11b,12,13,13a,13b-octadecahydro-1H-cyclopenta[a]chrysen-9-yl)pyrimidine-2-carboxylic acid]	> 1000
C=C(C)[C@@H]1CC[C@]2(CO)CC[C@]3(C)[C@H](CC[C@@H]4[C@@]5(C)CC=C(c6ccc(C(=O)O)cc6C)C(C)(C)[C@@H]5CC[C@]43C)[C@@H]12 [Example 5r, 4-((1R,3aS,5aR,5bR,7aR,11aS,11bR,13aR,13bR)-3a-(hydroxymethyl)-5a,5b,8,8,11a-pentamethyl-1-(prop-1-en-2-yl)-2,3,3a,4,5,5a,5b,6,7,7a,8,11,11a,11b,12,13,13a,13b-octadecahydro-1H-cyclopenta[a]chrysen-9-yl)-3-methylbenzoic acid]	< 1000
C=C(C)[C@@H]1CC[C@]2(CO)CC[C@]3(C)[C@H](CC[C@@H]4[C@@]5(C)CC=C(c6ccc(C(=O)O)c(C(F)(F)F)c6)C(C)(C)[C@@H]5CC[C@]43C)[C@@H]12 [Example 5s, 4-((1R,3aS,5aR,5bR,7aR,11aS,11bR,13aR,13bR)-3a-(hydroxymethyl)-5a,5b,8,8,11a-pentamethyl-1-(prop-1-en-2-yl)-2,3,3a,4,5,5a,5b,6,7,7a,8,11,11a,11b,12,13,13a,13b-octadecahydro-1H-cyclopenta[a]chrysen-9-yl)-2-(trifluoromethyl)benzoic acid]	< 1000
C=C(C)[C@@H]1CC[C@]2(CO)CC[C@]3(C)[C@H](CC[C@@H]4[C@@]5(C)CC=C(c6ccc(C(=O)O)c(C(=O)O)c6)C(C)(C)[C@@H]5CC[C@]43C)[C@@H]12 [Example 5t, 4-((1R,3aS,5aR,5bR,7aR,11aS,11bR,13aR,13bR)-3a-(hydroxymethyl)-5a,5b,8,8,11a-pentamethyl-1-(prop-1-en-2-yl)-2,3,3a,4,5,5a,5b,6,7,7a,8,11,11a,11b,12,13,13a,13b-octadecahydro-1H-cyclopenta[a]chrysen-9-yl)phthalic acid]	< 1000
C=C(C)[C@@H]1CC[C@]2(CO)CC[C@]3(C)[C@H](CC[C@@H]4[C@@]5(C)CC=C(c6ccc(C(=O)O)cn6)C(C)(C)[C@@H]5CC[C@]43C)[C@@H]12 [Example 5u, 6-((1R,3aS,5aR,5bR,7aR,11aS,11bR,13aR,13bR)-3a-(hydroxymethyl)-5a,5b,8,8,11a-pentamethyl-1-(prop-1-en-2-yl)-2,3,3a,4,5,5a,5b,6,7,7a,8,11,11a,11b,12,13,13a,13b-octadecahydro-1H-cyclopenta[a]chrysen-9-yl)nicotinic acid]	< 1000
C=C(C)[C@@H]1CC[C@]2(C(=O)O)CC[C@]3(C)[C@H](CC[C@@H]4[C@@]5(C)CC=C(c6ccc(C(=O)NS(=O)(=O)C(C)C)cc6)C(C)(C)[C@@H]5CC[C@]43C)[C@@H]12 [Example 6a, (1R,3aS,5aR,5bR,7aR,11aS,13aR,13bR)-9-(4-(isopropylsulfonylcarbamoyl)phenyl)-5a,5b,8,8,11a-pentamethyl-1-(prop-1-en-2-yl)-2,3,3a,4,5,5a,5b,6,7,7a,8,11,11a,11b,12,13,13a,13b-octadecahydro-1H-cyclopenta[a]chrysene-3a-carboxylic acid]	< 1000
C=C(C)[C@@H]1CC[C@]2(C(=O)O)CC[C@]3(C)[C@H](CC[C@@H]4[C@@]5(C)CC=C(c6ccc(C(=O)NS(C)(=O)=O)cc6)C(C)(C)[C@@H]5CC[C@]43C)[C@@H]12 [Example 6b, (1R,3aS,5aR,5bR,7aR,11aS,13aR,13bR)-5a,5b,8,8,11a-pentamethyl-9-(4-(methylsulfonylcarbamoyl)phenyl)-1-(prop-1-en-2-yl)-2,3,3a,4,5,5a,5b,6,7,7a,8,11,11a,11b,12,13,13a,13b-octadecahydro-1H-cyclopenta[a]chrysene-3a-carboxylic acid]	< 1000
C=C(C)[C@@H]1CC[C@]2(C(=O)O)CC[C@]3(C)[C@H](CC[C@@H]4[C@@]5(C)CC=C(c6ccc(C(=O)OC)cc6)C(C)(C)[C@@H]5CC[C@]43C)[C@@H]12 [Example 7, (1R,3aS,5aR,5bR,7aR,11aS,11bR,13aR,13bR)-9-(4-(methoxycarbonyl)phenyl)-5a,5b,8,8,11a-pentamethyl-1-(prop-1-en-2-yl)-2,3,3a,4,5,5a,5b,6,7,7a,8,11,11a,11b,12,13,13a,13b-octadecahydro-1H-cyclopenta[a]chrysene-3a-carboxylic acid]	> 1000
C=C(C)[C@@H]1CC[C@]2(CO)CC[C@]3(C)[C@H](CC[C@@H]4[C@@]5(C)CC=C(c6cc(C(=O)O)[nH]n6)C(C)(C)[C@@H]5CC[C@]43C)[C@@H]12 [Example 8, 3-((1R,3aS,5aR,5bR,7aR,11aS,11bR,13aR,13bR)-3a-(hydroxymethyl)-5a,5b,8,8,11a-pentamethyl-1-(prop-1-en-2-yl)-2,3,3a,4,5,5a,5b,6,7,7a,8,11,11a,11b,12,13,13a,13b-octadecahydro-1H-cyclopenta[a]chrysen-9-yl)-1H-pyrazole-5-carboxylic acid]	< 1000
C=C(C)[C@@H]1CC[C@]2(CO)CC[C@]3(C)[C@H](CC[C@@H]4[C@@]5(C)CC=C(c6cc(C(=O)O)no6)C(C)(C)[C@@H]5CC[C@]43C)[C@@H]12 [Example 9, 5-((1R,3aS,5aR,5bR,7aR,11aS,11bR,13aR,13bR)-3a-(hydroxymethyl)-5a,5b,8,8,11a-pentamethyl-1-(prop-1-en-2-yl)-2,3,3a,4,5,5a,5b,6,7,7a,8,11,11a,11b,12,13,13a,13b-octadecahydro-1H-cyclopenta[a]chrysen-9-yl)isoxazole-3-carboxylic acid]	< 1000
